Measurements published in patent US12221436B2, “Anthranilamides, their use as insecticide and processes for preparing the same” (PI INDUSTRIES LTD., priority 2018, dated 2025).

How the values were obtained:
Assay type in all cases: in vivo
[1] = test system: Plutella xylostella; assay: whole plant or invertebrate; details: in Brassica oleracea, foliar, second instar larvae, 72 h after release, dead and moribund combined, read-out: percent mortality
Procedure: (§1) Test solutions were prepared according to the procedure described herein below (500 PPM):
(§2) • 1. Eppendorf Vortex mixer (ThermoMixer C) and 1.5 mL Eppendorf tubes • 2. Beaker—100 mL • 3. Micro-pipette Reagents: • 1. Surfactant Solution • 2. De-mineralized (DM) Water Procedure: • 1. Weigh 10 mg of the compound of the present invention to be tested in an Eppendorf Tube. • 2. Add 200 mg of the Surfactant Solution into the tube. • 3. Fix the tube in Eppendorf Vortex mixer and start vortexing at 2000 rpm. • 4. Mix on Vortex mixer for 30 min. After 30 min, observe the sample over a microscope at 400× resolution. • 5. Add 1.0 mL DM water into the tube, close the cap, shake the tube thoroughly and transfer the contents, along with the beads, into a beaker. • 6. To rinse the tube, add another 1.0 mL of DM water into the tube, close the cap, shake well and transfer this into the same beaker. • 7. Repeat […] one more time so that the tube is rinsed well and all the compound of the present invention is transferred to the beaker. • 8. Add 16.8 mL of DM water into the beaker and stir well. • 9. Immediately use this sample for biological testing. • 10. Further dilutions can be prepared by taking appropriate quantity of the aliquot of Step 8, immediately after stirring, and diluting as per requirement. The sample solution must be well mixed just before biological testing.
Leaf dip method was used for screening, wherein the required quantity of the compounds were weighed and dissolved in the test solution into the tube and vortex at 2000 rpm with Zirconia beads for 90 min for proper mixing, then mixed with 0.01% Triton-X solution to get the desired test concentration. and Cabbage leaves were dipped in the solution for 10 seconds, shade dried for 20 min and then transferred to bioassay trays. Single second instar larvae were released into each cell and the tray was covered with lid. The bio-assay trays were kept under laboratory conditions at a temperature of 25° C. and Relative Humidity of 70%. Observations on dead, moribund and live larvae were recorded at 72 h after the release. Percent mortality was calculated by combining dead and moribund larvae. The following compound numbers

[2] = test system: Spodoptera litura; assay: Example B: Spodoptera litura, diet incorporation method; details: third instar larvae, 96 h after release, dead and moribund combined, read-out: percent mortality
Procedure: as §1, §2
(§3) Diet incorporation method was used, in which semi-synthetic diet was incorporated into the test solutions when the temperature is approximately 50° C. in the bioassay containers and stirred thoroughly for properly mixing and then was allowed to cool for 30 min. The solidified diet was cut into equal pieces, and then each piece was transferred in one cell in Bio-assay trays. A single third instar starved larva was released into each of these cells of bioassay trays and the tray was covered with the lid. The bio-assay trays were kept under laboratory conditions at a temperature of 25° C. and Relative Humidity of 70%. Observations on dead, moribund and live larvae were recorded at 96 h after the release of larvae. Percent mortality was calculated by combining dead and moribund larvae. The following compound numbers

[3] = test system: Myzus persicae; assay: Example E: Myzus persicae, leaf dip method (capsicum leaves); details: foliar, third instar nymphs, 72 h after release, dead and moribund combined, read-out: percent mortality
Procedure: as §1, §2
Leaf dip method was used for screening, wherein the required quantity of the compounds were weighed and dissolved in the test solution into the tube and vortex at 2000 rpm with Zirconia beads for 90 min and for proper mixing, then mixed with 0.01% Triton-X solution to get the desired test concentration. Capsicum leaves were dipped in the solution for 10 seconds, shade dried for 20 min and then leaves were kept in glass units with petiole dipped in water. Known numbers of third instar nymphs were released and were kept in the plant growth chamber at a temperature of 25° C. and Relative Humidity of 70%. Observations on dead, moribund and live nymphs were recorded at 72 h after the release. Percent mortality was calculated by combining dead and moribund nymphs. The following compound numbers

[4] = test system: Helicoverpa armigera; assay: Example A: Helicoverpa armigera, diet incorporation method; details: third instar larvae, 96 h after release, dead and moribund combined, read-out: percent mortality
Procedure: as §1, §2
as §3, with “which the” for “which”, “solution” for “solutions”

| Compound | mortality at 300 ppm [1] [%] | mortality at 300 ppm [2] [%] | mortality at 300 ppm [3] [%] | mortality at 300 ppm [4] [%] |
| --- | --- | --- | --- | --- |
| CCNC(=O)c1c(NC(=O)c2cc(OC3CSC3)nn2-c2ncccc2Cl)c(C)cc2ccnn12 [Compound 137, 6-(1-(3-chloropyridin-2-yl)-3-(thietan-3-yloxy)-1H-pyrazole-5-carboxamido)-N-ethyl-5-methylpyrazolo[1,5-a]pyridine-7-carboxamide] | > 70 |  |  |  |
| C=CCNC(=O)c1c(NC(=O)c2cc(N3CC(F)(F)C3)nn2-c2ncccc2Cl)c(C)cc2ccnn12 [Compound 87, N-allyl-6-(1-(3-chloropyridin-2-yl)-3-(3,3-difluoroazetidin-1-yl)-1H-pyrazole-5-carboxamido)-5-methylpyrazolo[1,5-a]pyridine-7-carboxamide] |  | > 70 |  |  |
| Cc1cc2ccnn2c(C(=O)NC2CC2)c1NC(=O)c1cc(OC2CSC2)nn1-c1ncccc1Cl [Compound 138, 6-(1-(3-chloropyridin-2-yl)-3-(thietan-3-yloxy)-1H-pyrazole-5-carboxamido)-N-cyclopropyl-5-methylpyrazolo[1,5-a]pyridine-7-carboxamide] |  | > 70 |  |  |
| C=CCNC(=O)c1cc(Cl)cc(Br)c1NC(=O)c1cc(OC2CSC2)nn1-c1ncccc1Cl [Compound 92, N-(2-(allylcarbamoyl)-6-bromo-4-chlorophenyl)-1-(3-chloropyridin-2-yl)-3-(thietan-3-yloxy)-1H-pyrazole-5-carboxamide] |  |  | > 50 |  |
| CC(C)(C)NC(=O)c1cc(Cl)cc(Br)c1NC(=O)c1cc(OC2CSC2)nn1-c1ncccc1Cl [Compound 45, N-(2-bromo-6-(tert-butylcarbamoyl)-4-chlorophenyl)-1-(3-chloropyridin-2-yl)-3-(thietan-3-yloxy)-1H-pyrazole-5-carboxamide] |  |  | > 50 |  |
| CONC(=O)c1cc(Cl)cc(Br)c1NC(=O)c1cc(OC2CSC2)nn1-c1ncccc1Cl [Compound 91, N-(2-bromo-4-chloro-6-(methoxycarbamoyl)phenyl)-1-(3-chloropyridin-2-yl)-3-(thietan-3-yloxy)-1H-pyrazole-5-carboxamide] |  |  | > 50 |  |
| C=CCNC(=O)c1cc(Cl)cc(C)c1NC(=O)c1cc(OC2CSC2)nn1-c1ncccc1Cl [Compound 98, N-(2-(allylcarbamoyl)-4-chloro-6-methylphenyl)-1-(3-chloropyridin-2-yl)-3-(thietan-3-yloxy)-1H-pyrazole-5-carboxamide] |  |  | > 50 |  |
| Cc1cc(Cl)cc(C(=O)NC2CC2)c1NC(=O)c1cc(OC2C[S+]([O-])C2)nn1-c1ncccc1Cl (stereo not drawn) [Compound 128, N-(4-chloro-2-(cyclopropylcarbamoyl)-6-methylphenyl)-1-(3-chloropyridin-2-yl)-3-((1-oxidothietan-3-yl)oxy)-1H-pyrazole-5-carboxamide] |  |  | > 50 |  |
| Cc1cc(Cl)cc(C(=O)NCC2CC2)c1NC(=O)c1cc(OC2C[S+]([O-])C2)nn1-c1ncccc1Cl (stereo not drawn) [Compound 129, N-(4-chloro-2-((cyclopropylmethyl)carbamoyl)-6-methylphenyl)-1-(3-chloropyridin-2-yl)-3-((1-oxidothietan-3-yl)oxy)-1H-pyrazole-5-carboxamide] |  |  | > 50 |  |
| Cc1cc2ccnn2c(C(=O)NCC2CC2)c1NC(=O)c1cc(N2CC(F)(F)C2)nn1-c1ncccc1Cl [Compound 78, 6-(1-(3-chloropyridin-2-yl)-3-(3,3-difluoroazetidin-1-yl)-1H-pyrazole-5-carboxamido)-N-(cyclopropylmethyl)-5-methylpyrazolo[1,5-a]pyridine-7-carboxamide] | > 70 | > 70 |  | > 70 |
| CONC(=O)c1c(NC(=O)c2cc(N3CC(F)(F)C3)nn2-c2ncccc2Cl)c(C)cc2ccnn12 [Compound 85, 6-(1-(3-chloropyridin-2-yl)-3-(3,3-difluoroazetidin-1-yl)-1H-pyrazole-5-carboxamido)-N-methoxy-5-methylpyrazolo[1,5-a]pyridine-7-carboxamide] | > 70 |  |  | > 70 |
| Cc1cc2ccnn2c(C(=O)NC(C)C2CC2)c1NC(=O)c1cc(OC2CSC2)nn1-c1ncccc1Cl (stereo not drawn) [Compound 139, 6-(1-(3-chloropyridin-2-yl)-3-(thietan-3-yloxy)-1H-pyrazole-5-carboxamido)-N-(1-cyclopropylethyl)-5-methylpyrazolo[1,5-a]pyridine-7-carboxamide] |  | > 70 |  | > 70 |
| CCNC(=O)c1c(NC(=O)c2cc(N3CC(F)(F)C3)nn2-c2ncccc2Cl)c(C)cc2ccnn12 [Compound 84, 6-(1-(3-chloropyridin-2-yl)-3-(3,3-difluoroazetidin-1-yl)-1H-pyrazole-5-carboxamido)-N-ethyl-5-methylpyrazolo[1,5-a]pyridine-7-carboxamide] |  | > 70 |  |  |
| COCCNC(=O)c1c(NC(=O)c2cc(OC3CSC3)nn2-c2ncccc2Cl)c(C)cc2ccnn12 [Compound 156, 6-(1-(3-chloropyridin-2-yl)-3-(thietan-3-yloxy)-1H-pyrazole-5-carboxamido)-N-(2-methoxyethyl)-5-methylpyrazolo[1,5-a]pyridine-7-carboxamide] |  |  |  | > 70 |
| CCCNC(=O)c1c(NC(=O)c2cc(OC3CSC3)nn2-c2ncccc2Cl)c(C)cc2ccnn12 [Compound 108, 6-(1-(3-chloropyridin-2-yl)-3-(thietan-3-yloxy)-1H-pyrazole-5-carboxamido)-5-methyl-N-propylpyrazolo[1,5-a]pyridine-7-carboxamide] | > 70 |  |  |  |
| Cc1cc2ccnn2c(C(=O)NCC2CC2)c1NC(=O)c1cc(OC2CSC2)nn1-c1ncccc1Cl [Compound 80, 6-(1-(3-chloropyridin-2-yl)-3-(thietan-3-yloxy)-1H-pyrazole-5-carboxamido)-N-(cyclopropylmethyl)-5-methylpyrazolo[1,5-a]pyridine-7-carboxamide] | > 70 | > 70 |  | > 70 |
| CNC(=O)c1c(NC(=O)c2cc(N3CC(F)(F)C3)nn2-c2ncccc2Cl)c(C)cc2ccnn12 [Compound 79, 6-(1-(3-chloropyridin-2-yl)-3-(3,3-difluoroazetidin-1-yl)-1H-pyrazole-5-carboxamido)-N,5-dimethylpyrazolo[1,5-a]pyridine-7-carboxamide] | > 70 | > 70 |  | > 70 |
| Cc1cc(Cl)cc(C(=O)NC(C)C)c1NC(=O)c1cc(OC2C[S+]([O-])C2)nn1-c1ncccc1Cl (stereo not drawn) [Compound 117, N-(4-chloro-2-(isopropylcarbamoyl)-6-methylphenyl)-1-(3-chloropyridin-2-yl)-3-((1-oxidothietan-3-yl)oxy)-1H-pyrazole-5-carboxamide] |  |  | > 50 |  |
| O=C(NCC(F)(F)F)c1cc(Cl)cc(Cl)c1NC(=O)c1cc(OC2CSC2)nn1-c1ncccc1Cl [Compound 132, 1-(3-chloropyridin-2-yl)-N-(2,4-dichloro-6-((2,2,2-trifluoroethyl)carbamoyl)phenyl)-3-(thietan-3-yloxy)-1H-pyrazole-5-carboxamide] |  |  | > 50 |  |
